The experiment concerns the target T1, human GPR40 (Homo sapiens, UniProt O14842).
T1 construct: expressed in transfected cells; host or cells: HEK cells stably expressing the aequorin reporter
Kind of experiment: Inositol Phosphate Turnover (IP1) Assay 2. The class given is cell-based. Conditions: HEK cells stably expressing human GPR40; 15,000 cells per well; compound acoustically transferred; CisBio IP-One kit. The gist of the method: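 HEK cells stably expressing human GPR40, plated 16 h beforehand, were exposed to compound in stimulation buffer for 60 min at 37 °C. IP1 accumulation was detected by HTRF (665/620 nm ratio) after 60 min with detection reagents and converted to IP1 concentration from a same-day standard curve.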

The source of these data is patent US10968193B2, “Antidiabetic bicyclic compounds” (Merck Sharp & Dohme Corp., priority 2014, dated 2021).

T1 sequence (O14842 whole entry): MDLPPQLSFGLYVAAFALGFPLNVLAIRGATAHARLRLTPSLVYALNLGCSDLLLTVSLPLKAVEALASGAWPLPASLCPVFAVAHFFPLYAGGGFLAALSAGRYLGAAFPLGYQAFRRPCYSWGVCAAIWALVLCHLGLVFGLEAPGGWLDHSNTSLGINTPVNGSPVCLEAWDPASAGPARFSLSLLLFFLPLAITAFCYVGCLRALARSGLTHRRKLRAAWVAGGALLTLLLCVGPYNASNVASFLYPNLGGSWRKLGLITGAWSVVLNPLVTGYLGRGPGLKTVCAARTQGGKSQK

For the compound `COc1cc(-c2ccc(C3CCc4ccc([C@H](C5CC5)[C@H](C)C(=O)O)cc4O3)cc2[C@@H](C)N(C)C)c(F)cn1` (stereo partly drawn) [Example 83, (2S,3R)-3-cyclopropyl-3-((R)-2-(3-((R)-1-(dimethylamino)ethyl)-4-(5-fluoro-2-methoxypyridin-4-yl)phenyl)chroman-7-yl)-2-methylpropanoic aid], a half-maximal response (EC50) required 3 nM.
Under `COc1cc(-c2ccc(C3CCc4ccc([C@H](C5CC5)[C@H](C)C(=O)O)cc4O3)cc2C(C)N2CCCC2)c(F)cn1` (stereo partly drawn) [Example 84, Methyl (2S,3R)-3-cyclopropyl-3-(2-(4-(5-fluoro-2-methoxypyridin-4-yl)-3-(1-(pyrrolidin-1-yl)ethyl)phenyl)chroman-7-yl)-2-methylpropanoic acid] stands 2 nM; under `COc1cc(-c2ncc(C3CCc4ccc([C@H](C5CC5)[C@H](C)C(=O)O)cc4O3)nc2CN2CCCC2)c(F)cn1` (stereo partly drawn) [Example 110, (2S,3R)-3-cyclopropyl-3-(2-(5-(5-fluoro-2-methoxypyridin-4-yl)-6-(pyrrolidin-1-ylmethyl)pyrazin-2-yl)chroman-7-yl)-2-methylpropanoic acid], 824 nM.
Under `COC[C@@H]1CCCN1Cc1cc([C@@H]2CCc3ccc([C@H](C4CC4)[C@H](C)C(=O)O)cc3O2)ccc1-c1cc(OC)ncc1F` [Example 134, (2S, 3R)-3-cyclopropyl-3-((S)-2-(4-(5-fluoro-2-methoxypyridin-4-yl)-3-(((S)-2-(methoxymethyl)pyrrolidin-1-yl)methyl)phenyl)chroman-7-yl)-2-methylpropanoic acid] stands 0.8 nM; under `COC[C@@H]1CCCN1Cc1cc([C@H]2CCc3ccc([C@H](C4CC4)[C@H](C)C(=O)O)cc3O2)ccc1-c1cc(OC)ncc1F` [Example 135], 5 nM; under `COc1cc(-c2ccc([C@H]3CCc4ccc([C@H](C5CC5)[C@H](C)C(=O)O)cc4O3)cc2CN2CCC[C@@H]2C)c(F)cn1` [Example 136], 4.6 nM.
On to `COc1cc(-c2ccc([C@H]3CCc4ccc([C@H](C5CC5)[C@H](C)C(=O)O)cc4O3)cc2CN2CCC[C@H]2C)c(F)cn1` [Example 137], for which the EC50 (in general, the concentration needed to bring the measured effect to its halfway point) came out at 4.6 nM.
Take `COc1cc(-c2ccc([C@@H]3CCc4ccc([C@H](C5CC5)[C@H](C)C(=O)O)cc4O3)cc2CN2CCC[C@@H]2C)c(F)cn1` [Example 140]: the EC50 was found to be 1.8 nM.
Take `COc1cc(-c2ccc([C@@H]3CCc4ccc([C@H](C5CC5)[C@H](C)C(=O)O)cc4O3)cc2CN2CCC[C@H]2C)c(F)cn1` [Example 141]: the EC50 turned out to be 1.1 nM.
Under `COc1cc(-c2ccc([C@H]3CCc4ccc([C@H](C5CC5)[C@H](C)C(=O)O)cc4O3)cc2CN2CCCC(C)(C)C2)c(F)cn1` [Example 142] stands 1.1 nM; under `COc1cc(-c2ccc([C@@H]3CCc4ccc([C@H](C5CC5)[C@H](C)C(=O)O)cc4O3)cc2CN2CCCC(C)(C)C2)c(F)cn1` [Example 143], 0.3 nM; under `COc1cc(-c2ccc([C@H]3CCc4ccc([C@H](C5CC5)[C@H](C)C(=O)O)cc4O3)cc2CN2CCCCC23CC3)c(F)cn1` [Example 144], 0.3 nM.
Under `CCN(CC)Cc1cc([C@H]2CCc3ccc([C@H](C4CC4)[C@H](C)C(=O)O)cc3O2)ccc1-c1cc(OC)ncc1F` [Example 145] stands 2.7 nM.
In the case of `COc1cc(-c2ccc([C@H]3CCc4ccc([C@H](C5CC5)[C@H](C)C(=O)O)cc4O3)cc2CN2CCCC2(C)C)c(F)cn1` [Example 146] it was 1.8 nM; in that of `COc1cc(-c2ccc([C@H]3CCc4ccc([C@H](C5CC5)[C@H](C)C(=O)O)cc4O3)cc2CN2[C@H](C)CC[C@H]2C)c(F)cn1` [Example 147], 0.7 nM.
`COc1cc(-c2ccc([C@H]3CCc4ccc([C@H](C5CC5)[C@H](C)C(=O)O)cc4O3)cc2CN2C3CCC2CC3)c(F)cn1` [Example 148] yielded a concentration giving a half-maximal response (EC50) of 4.2 nM.
Turning to `COc1cc(-c2ccc([C@H]3CCc4ccc([C@H](C5CC5)[C@H](C)C(=O)O)cc4O3)cc2CNCC(F)(F)F)c(F)cn1` [Example 149], the EC50 came to 2.5 nM.
